Experiment [1] has as its system J774 macrophages. Briefly: Alamar Blue macrophage J774 viability assay. In kind it is cell-based. The conditions noted are these: Mus musculus, 72 hours exposure, J774 macrophage cell line, read-out: IC50 against J774 macrophages (viability). The protocol: Initial screening of candidate compounds was performed using viability assays, on cultures of the macrophage cell line J774, which have been used before as a model system for osteoclast survival (see, e.g., Luckman et al., 1998). The assay is based on the survival of the J774 macrophage cell line; macrophages are closely related to osteoclasts, and contain similar high levels of esterase activity.
J774 cells were plated at 10^4 cells per well in 150 μL αMEM (α Modified Eagle Medium) in 96-well plates and grown overnight. The next day, compounds were added to the cultures, and culture was continued for another 72 hours. At the end of the culture period cell survival was determined using an Alamar Blue assay as previously described (see, e.g., Nociari et al., 1998).
Alamar Blue is an oxidation-reduction sensitive indicator. The dye itself is in the oxidised state, which is blue and non-fluorescent. […] Thus the transformation from oxidised form to reduced form can be measured by fluorimetric or colourimetric means. For fluorescence measurements, 530-560 nm excitation and 590 nm emission wavelengths are typically used. For colourimetric measurements, absorbance is measured at 570 nm (reduced form) and 600 nm (oxidised form) and a simple calculation performed to determine the relative quantities of the two species. […]
On the technique in general: Alamar Blue is a resazurin reagent that responds to reducing activity.

For experiment [2], the system named is osteoblasts. Briefly: Alamar Blue mouse osteoblast assay. It counts as cell-based. The note with it: 72 hours exposure, read-out: IC50 against osteoblasts (survival). On the procedure:
Osteoblasts were isolated as described above and plated at 10^4 cells/well in 96-well plates in 100 μL of αMEM supplemented with 10% FCS and antibiotics. Test compounds were added after 24 hours and left for 72 hours. Cell viability was assessed using the Alamar Blue assay as described for J774 macrophages. Alamar Blue (Biosource International) was added undiluted to each well (1:10 v/v, 10 μL). The plate was incubated at 37° C. for 3 to 4 hours and the fluorescence was measured at 570 nm, with a 25 nm bandwidth.
Osteoblast Isolation. Briefly, osteoblasts were isolated from the calvarial bones of 2-day-old mice by sequential collagenase digestion (type I collagenase, Sigma) and cultured in αMEM supplemented with 10% FCS (foetal calf serum) and penicillin and streptomycin at 37° C. in 5% CO2.
More specifically, osteoblasts were obtained from a collagenase digestion of the calvaria (skull bones) of 2-3 day old neo-natal MF1 mice. At this stage in their development these are soft and easily removed. The calvaria from 5-6 mice were carefully dissected and washed in HBSS (Hank's balanced saline solution). The calvaria were placed in a 15 mL tube and shaken at 37° C. in 4 mL collagenase (10 mg/ml) for 10 minutes. This removes the excess unwanted tissue. The liquid was disposed of and a further 4 mL collagenase (10 mg/ml) added to the tube. The calvaria were then digested for a further 30 minutes. […]

Experiment [3] deals with ovariectomy induced bone loss. Briefly: Ovariectomy induced bone loss in mice, trabecular bone mineral density by pQCT. The conditions noted are these: OVX female C57/BL6 mice, 20 mg/kg by gavage in olive oil, 21 days, tibial metaphysis. It counts as in vivo. The protocol:
Animals. Female 9 week-old C57/BL6 mice. Animals were housed in a designated animal facility and routinely maintained on a 12 h:12 h light:dark cycle and given ad libitum access to food and water. Ovariectomy induced bone loss. Bilateral ovariectomy (Ovx) was performed under general anaesthesia. Sham ovariectomy (Sham) was similarly performed but with externalisation and replacement of the ovaries. Animals were given a gavage of (a) candidate compound (e.g., 20 mg/kg) in vehicle (olive oil), or (b) vehicle (olive oil). After 21 days, the animals were killed, and the tibial bones were dissected and used for bone mineral density measurements. Bone Mineral Measurements. Measurements of bone mineral density (BMD) at the left proximal tibial metaphysis were determined by peripheral quantitative computed tomography (pQCT) using an XCT Research M bone densitometer with a voxel size of 70 μm and analysis software version 5.1.4. (Stratec Medizintechnik, Pforzheim, Germany). Daily quality assurance measurements were performed using a plexi-coated PVC-fluorinated hydrocarbon phantom according to the manufacturer's instructions.

Where only a bound is given, the exact number is not on record here.

The IC50 is the concentration that inhibits the measured activity by half. For `O=C(CCCCCO)c1ccc(-c2ccccc2)cc1` [ABD-68, 6-Hydroxy-1-(4-biphenyl)hexan-1-one], the IC50 is below 20 µM in experiment [1] and above 100 µM in experiment [2]. The “reversal of ovariectomy-induced bone loss (percent change in trabecular BMD)” value in experiment [3] is recorded as “very effective at reversing the bone loss”.

`OCCCCCC(O)c1ccc(-c2ccccc2)cc1` (centres unmarked) [ABD-150, 1-Biphenyl-4-yl-hexan-1,6-diol]: the IC50 in experiment [1] is below 20 µM; in experiment [2], above 100 µM.

For the origin of these results see patent publication US7572825B2, “Ketones and reduced ketones as therapeutic agents for the treatment of bone conditions” (The University Court of the University of Aberdeen, priority 2003, dated 2009).
